Test results published in patent US20250288548A1, “INTRANASAL BACLOFEN” (THE REGENTS OF THE UNIVERSITY OF CALIFORNIA, priority 2022, published 2025).

Tests used:
[1] = at therapeutically effective intrathecal concentrations; cited from earlier work
[2] = solutions containing phosphate, sulfate, potassium, or magnesium; per U.S. Pat. No. 9,180,108 (also printed: greater than 4, 5, 6, 7 mg/mL); cited from earlier work
[3] = system: patients with new acquired brain injury; experiment: Intranasal baclofen study in about 40 hospitalized patients (measured torque response, clinical response); assay type: in vivo, human
From the text: FIG. 1 represents the summarized results of a study of about 40 patients. Grey bars represent patients treated with nasal baclofen, and white bars represent placebo. Bars to the left (negative) represent reduced tone, and right (positive) is worse tone. The middle line is no change. Statistically significant results are provided with error bars in this figure.
The first bar chart from left to right is baseline compared to visit 2 low dose (250 mcg). The second bar chart from left to right is baseline compared to visit 3 moderate dose (1000 mcg). The third bar chart from left to right is baseline compared to visit 4 high dose (2000 mcg). The fourth bar chart from left to right is baseline compared to visit 5 weaned off back to baseline (providing some residual effect). The p-values for the third panel, which represents the high dose are: Treatment p-value 0.004959, and Control p-value 0.232.
Forty (40) hospitalized patients with new acquired brain injury acutely treated in the PICU have been treated with intranasal baclofen. Aqueous intranasal solutions comprising 250 mcg, 1000 mcg, and/or 2000 mcg of baclofen and […] of sodium chloride per mL exploiting the nasal pathway have delivered baclofen to the CNS by circumventing the BBB. […]

[4] = system: patient with increased tone after explantation of intrathecal baclofen pump; experiment: Individual intranasal baclofen test dose in PICU patient; assay type: in vivo, human; settings: gablofen 2-50 mcg vials delivered intranasally as one administration; all enteral medications held
From the text: A patient was admitted to a pediatric intensive care unit (PICU) due to increased tone after the patient had underwent surgical explantation of an intrathecal baclofen pump. The patient was on maximum doses of several enteral medications including enteral baclofen. They were given a test dose of intranasal baclofen administered in the PICU using commercially prepared intrathecal baclofen for test dose (gablofen 2-50 mcg vials delivered intranasally as one administration).

[5] = excised bovine nasal tissues; concentration independent transport, no polarized flux; cited from earlier work
[6] = enteral doses ranging from 30 to 90 mg; cited from earlier work

Compound: NCC(CC(=O)O)c1ccc(Cl)cc1 (centres unmarked) [baclofen, 4-amino-3-(p-chlorophenyl) butyric acid]
- plasma concentrations with intrathecal injection relative to oral/enteral administration [1]: 100 times less
- concentration of baclofen that can be dissolved [2]: greater than 2 mg/mL
- response compared with enteral baclofen ([3]; intranasal 250, 1000 and/or 2000 mcg solutions, versus maximized enteral baclofen dose (>90 mg/day)): far greater than that observed with enteral baclofen
- sedation compared with enteral baclofen ([3]; intranasal administration): far less sedation
- change in tone after intranasal test dose [4]: Significant improvement in tone
- mechanism of absorption across nasal tissues [5]: primarily absorbed via simple passive diffusion
- CSF levels [6]: 0.012 to 0.096 µg/mL
- plasma levels [6]: 50 to 650 ng/mL
